Test results as given in patent publication US20060148829A1, “Means for inducing differentiation of supernumerary hair cells and deiters' cells in the developing organ of corti” (priority 2002, published 2006).
Starred links: 1 amine or outer side, 2 acyl side, 3 side chain; linkers in the order of their positions; H or OH if unused. Positions of bridges follow the written chain, without caps; N, C: chain ends. Non-standard residues stand in square brackets, D forms with d. Residues, ends and D or L forms follow the SMILES beside them. Chains are numbered I, II in the order given. Actinocin(9to1) = Cc1c2oc3c(C)ccc(C(=O)[*:1])c3nc-2c(C(=O)[*:2])c(N)c1=O; NMeV = CN[C@H](C(=O)O)C(C)C; Sar = CNCC(=O)O

Legend:
[1] = system: rat organ of Corti explants; assay: Induction of supernumerary hair cells (HCs) in cultured organ of Corti explants; details: for Induction of supernumerary HCs (in words): E19 rat organ of Corti explants, 5 days in culture; for Concentration inducing maximum supernumerary HCs differentiation: isolated organs of Corti, lowest concentration inducing maximum effect, for inactive compounds highest concentration tested 100 :M
Description: Time-pregnant Sprague-Dawley rats or neonates were killed by euthanasia on gestational days 17 (E17), E19, or on postnatal days 0 (day of birth=P0), P2 and P4 with CO2. Both cochleae were dissected free from the calvaria with watchmaker forceps and under a stereomicroscope. Each organ of Corti was freed from surrounding tissues and explanted intact onto the surface of a sterile membrane (Mllicellm, 12 mm, Millipore, Bedford, Mass., USA) in minimum essential medium (MEM; Gibco, Gent, Belgium) into a 24-well culture plate (Nunc). Cultures were incubated at 37° C. in a humidified atmosphere of 95% air and 5% CO2. Medium was renewed every 2 days.
Organs of Corti were dissected from E19 rats and maintained in culture. […] For each condition, the explants were fixed and the supernumerary zones were counted after myosin VIIa immunostaining.
Quantitative analysis of supernumerary HCs production was obtained by counting the number of HCs per length and surface of sensory epithelium regions from the medium turn as previously described (5). If supernumerary cells were actually produced, the number of cells per unit of length should increase while the number of cells per surface unit should remain at the same level. […] The total length of each organ of Corti explant was measured and the extent of the region with supernumerary HCs was expressed as percent of total length. These supernumerary regions were defined by the presence of more than four rows of HCs.

CDK1/cyclin B = details: Knockaert et al, 2002b; cited from earlier work
[2] = system: E19 rat organ of Corti explants; assay: TUNEL labelling of apoptosis in organ of Corti explants; assay type: cell-based; details: 10 :M, after 1, 2 or 5 DIV
Description: The apoptosis in E19 rat organ of Corti explants was looked for by staining the specimens cultured for 1, 2 or 5DIV with the terminal deoxynudeotidyl transferase-mediated dUTP nick-end labelling (TUNEL) method using the ApopTag fluorescent detection kit (Oncor, Gaitherburg, Md.) as previously described (6).

[3] = system: mouse organs of Corti (Math1 genotypes); assay: Roscovitine-induced HCs in organs of Corti of wild type, Math1-null and heterozygote mice; assay type: cell-based; details: 5DIV
Method: Math1 knockout mice were generated by replacing the Math1 open reading frame (ORF) with the selectable marker PGKhprt as previously described by Ben-Arie et al.(l). Math1^∃^gal/^∃^-gal knock-in mice were generated by replacing the Math1 ORF with a ∃-galactosidase (∃-gal) reporter gene so that ∃-gal is expressed in all cells that express Math1 (2).
Whole-mount lacZ staining was carried out on cultured E15.5 organ of Corti explants as previously described (2;3). After 5DIV, explants were fixed in 4% paraformaldehyde for 20 minutes, washed thoroughly in PBS and equilibrate in X-gal staining buffer (5 mM potassium ferricyanide, 5 mM potassium ferrocyanide, 0.02% NP40, and 0.01% sodium deoxycholate). Explants were stained overnight in X-gal buffer with X-gal (1 mg/ml) then post-fixed in 4% paraformaldehyde. Genotyping of tail DNA was performed using Southern analysis of EcoRI digested DNA and probes as previously described (1).

[4] = Administration to patients suffering of deafness; assay type: in vivo; details: regularly administered
[5] = system: E19 explants of organ of Corti; assay: BrdU labelling of cell proliferation in organ of Corti explants; assay type: cell-based, rat
Method: Immunohistochemistry, immunocytochemistry and confocal microscopy were carried out as previously described (4;5). Whole-mount preparations or cryostat sections (10-20 :m) were fixed with either 4% paraformaldehyde (10 min. at 20° C.) or methanol (5 min. at −20° C.). Primary antibodies incubations were performed overnight at 4° C. Preparations were washed three times in PBS before incubating with a secondary antibody conjugated to alexa488, alexa568 or TRITC fluorophore for 1 hour at 20° C. Sequential double labeling experiments were done with a 4% paraformaldehyde fixation step in between each immunoreaction. Preparations were mounted on microscope slides and coverslipped with Fluoprep mounting medium (BioMérieux, Marcy l'Etoile, France) and imaged using a Bio-Rad MRC1024 laser scanning confocal microscope. To label cells in S phase in vitro, BrdU (10 :M, Sigma, USA) which is incorporated into replicating DNA, was added to the cultures for 2 or 5DIV prior staining.

Molecule | Induction of supernumerary HCs (in words) [1] | Concentration inducing maximum supernumerary HCs differentiation [1] | other results
CC(C)[C@H](CO)Nc1nc(N(C)c2cc(N)cc(Cl)c2)c2ncn(C(C)C)c2n1 [6-methyl-aminopurvalanol, N6-methyl-aminopurvalanol] | no effect | no effect | 
Cc1c2oc3c(C)ccc(C(=O)N[C@@H]4C(=O)N[C@H](C(C)C)C(=O)N5CCC[C@H]5C(=O)N(C)CC(=O)N(C)[C@@H](C(C)C)C(=O)O[C@@H]4C)c3nc-2c(C(=O)N[C@@H]2C(=O)N[C@H](C(C)C)C(=O)N3CCC[C@H]3C(=O)N(C)CC(=O)N(C)[C@@H](C(C)C)C(=O)O[C@@H]2C)c(N)c1=O [Actinomycin D, actinomycin D] (I: T[dV]P[Sar][NMeV] / II: T[dV]P[Sar][NMeV]; ester I:1-I:C, II:1-II:C; linker I:N-II:N via Actinocin(9to1)) | able to induce supernumerary HCs | 0.0001 :M | 
OC[C@H]1O[C@@H](n2cnc3cc(Cl)c(Cl)cc32)[C@H](O)[C@@H]1O [DRB, 6-dichloro-1-beta-D-ribobenzimidazole] | able to induce supernumerary HCs | 0.01 :M | 
N#CC(=C(/N)Sc1ccccc1N)/C(C#N)=C(\N)Sc1ccccc1N [U0126] | did not induce supernumerary HCs | no effect | CDK1 inhibition (IC50) (CDK1/cyclin B): no effect
O=C1Cc2c([nH]c3ccc([N+](=O)[O-])cc23)-c2ccccc2N1 [alsterpaullone] | induced the appearance of supernumerary HCs | 5 :M | 
CC(C)[C@H](CO)Nc1nc(Nc2cc(N)cc(Cl)c2)c2ncn(C(C)C)c2n1 [aminopurvalanol] |  | 5 :M | 
O=C1c2ccccc2-[n+]2ccc3c([nH]c4ccccc43)c21 [fascaplysin] | no effect | no effect | CDK1 inhibition (IC50) (CDK1/cyclin B): no effect
Cn1cnc2nc(NCCO)nc(NCc3ccccc3)c21 [iso-olomoucine] | no effect | no effect | 
Cn1cnc2c(NCc3ccccc3)nc(NCCO)nc21 [olomoucine] |  | 30 :M | 
CC[C@H](CO)Nc1nc(NCc2ccccc2)c2ncn(C(C)C)c2n1 [roscovitine] | higher number of supernumerary HCs and corresponding SCs | 10 :M | TUNEL positive nuclei [2]: no TUNEL positive nuclei were identified; Myosin VIIA positive supernumerary HCs, wild type mice ([3]; E15 or E18 wild type mice): myosin VIIA immunopositive supernumerary HCs, (FIG. 9A) were observed; Supernumerary HCs, Math1 heterozygote mice ([3]; E15.5 Math1 +/beta-gal organs of Corti, 10 :M): supernumerary HCs were present; Myosin VIIA staining, Math1-null mutant mice ([3]; E15.5 Math1-null cochlea): absent; Developmental stage dependence of induction of supernumerary HCs ([1]; 10 :M, 5 days of culture, stages E17 to P4): culminated at E17, sightly decreased at E19 and disappeared at P0; Toxicity for cells in the organ of Corti ([1]; 30 and 100 :M): toxic for all cells in the organ of Corti; Time in culture for maximal effect on length of supernumerary zones ([1]; E19 rat explants, 10 :M): 5 DIV; Supernumerary segments as percent of the total length of the explants ([1]; E19 rat explants, 10 :M, 5DIV, mean, S.D., n=4 independent experiments): 52.9%; Time in culture for effect on length of supernumerary zones ([1]; E19 rat explants, 10 :M, significant effect): 4 DIV; Density of HCs per surface unit vs control explants ([1]; roscovitine-treated explants): remained identical to that of control explants; Clinical effect in patients suffering of deafness [4]: An improvement of their troubles was observed; Tolerability in patients suffering of deafness [4]: without any drawbacks; Rate of proliferation of mesenchymal cells in connective tissue ([5]; E19 explants, BrdU): higher in the absence of roscovitine; BrdU labelling of epithelial cells in the area of HCs and SCs ([5]; roscovitine-treated E19 explants, 10 :M BrdU, 2 or 5 DIV): No epithelial cells were labeled with BrdU
indirubin-3′-monoxime | induced the appearance of supernumerary HCs | 10 :M | 
